Source: publication PMC10017155 (Aging and Disease, 2023)

Legend:
[1] = compared with normal Aβ; ref [9]; cited from earlier work
From the text: We hypothesized that the contribution of isoD7-Aβ to the development of AD is based on the formation of zinc-bound complexes that promote pathological aggregation of Aβ (Fig. 1A).

transgenic mice = conditions: in contrast to normal Aβ; ref [23], [24]; cited from earlier work
From the text: The development of AD comprises a cascade of pathogenic processes in brain tissue. Some of the major elements of this cascade are the aggregation of beta-amyloid (Aβ) with the formation of neurotoxic oligomers, hyperphosphorylation of tau, and neuroinflammation. […] In the sporadic form of AD, accounting for 95% of disease cases, the molecular triggers for the pathological cascade remain unknown. […] We hypothesized that the contribution of isoD7-Aβ to the development of AD is based on the formation of zinc-bound complexes that promote pathological aggregation of Aβ (Fig. 1A). […] Interaction of HAEE with beta-amyloid. (A) A model for the contribution of isoD7-Aβ to AD pathology, and the possible ways of preventing its deleterious effects. Aβ spontaneously converts into isoD7-Aβ, which is accumulated over age, likely due to reduced Aβ clearance. Isomerized Aβ promotes AD pathology, potentially via formation of Zn-bound complexes serving as the seeds for a generation of neurotoxic oligomers. Treatment with anti-isoAβ antibodies is a promising therapeutic strategy already showing effectiveness in AD model mice ^9.

isoD7-Aβ16 = test: NMR titration, isoD7-Aβ16 with HAEE and Zn2+; format: binding; conditions: addition of Zn2+ without HAEE; disappearance of NMR signal (Supplementary Fig. 3); also ref [9]
Description: Peptides Aβ16, H6R-Aβ16 and isoD7-Aβ16 at the concentration of 0.2 - 8mM were dissolved in 10-20 mM bis-Tris-d19 (2,2-Bis(hydroxymethyl)-2,2′,2"-nitrilotrie-thanol-d19 with 98% ^2D enrichment) buffer solution (pH 6.8). Sodium salt of 3-(trimethylsilyl) propionic-2,2,3,3-d4 acid (DSS) at a concentration of 10-20 μM was added as the standard. NMR spectra were measured at 278 K in 90% H2O/10% D2O with Bruker AVANCE 600 MHz spectrometer equipped with triple resonance (^1H, ^13C and ^15N) pulsed field z gradient probe. 1D NMR spectra were processed and analyzed using the Mnova software (Mestrelab Research, Spain). In order to monitor peptide-peptide interactions NMR titration experiments were carried out. […] 1D spectra were recorded for each titration point.

H6R-Aβ16 = conditions: ref [9]; cited from earlier work
From the text: The dimeric form has a well-resolved characteristic signal of the V12 methyl group at 0.2 ppm, which allows for a quantitative assessment of the dimeric state. […] Thus, the ...

For “Ac-DAEFRH[isoD]SGYEVHHQK-NH2 [isoD7-Aβ16, reference compound]”, the Zinc-dependent aggregation [1] is given as “increased capacity”, the “Amyloidosis in transgenic mice” value (transgenic mice) is given as “stimulate amyloidosis” and the “Effect of Zn2+ on isoD7-Aβ16 (oligomerization; NMR signal)” value (isoD7-Aβ16) is given as “almost complete oligomerization and precipitation”.

In the case of “Ac-DAEFRRDSGYEVHHQK-NH2 [H6R-Aβ16, Aβ1-16 variant with the English (H6R) mutation]”, the “State of H6R-Aβ16 in the presence of Zn2+” value (H6R-Aβ16) is given as “mixture of monomeric and dimeric forms”.
